Measured values published in patent publication US20250122160A1, “PROTEIN TYROSINE PHOSPHATASE INHIBITORS AND METHODS OF USE THEREOF” (Calico Life Sciences LLC, priority 0001, published 2025).

Experiments:
[1] = test system: MC-38 murine colon adenocarcinoma; assay: In vivo efficacy in MC38 mouse tumor model
Experimental: All experiments were conducted in compliance with AbbVie's Institutional Animal Care and Use Committee and the National Institutes of Health Guide for Care and Use of Laboratory Animals guidelines in a facility accredited by the Association for the Assessment and Accreditation of Laboratory Animal Care. C57Bl/6 female mice were obtained from Charles River (Wilmington, MA). The mice were group-housed 10 per cage. Food and water were available ad libitum. Animals were acclimated to the animal facilities for a period of at least one week prior to commencement of experiments. Animals were tested in the light phase of a 12-hour light:12-hour dark schedule (lights on 0600 hours).
Cells were grown to passage 3 in vitro. A total of 1×10^5 viable MC-38 cells were inoculated subcutaneously into the right flank of female C57Bl/6 mice (7-12 weeks old) on Day 0. […] Tumor volume was calculated three times weekly. Measurements of the length (L) and width (W) of the tumor were taken via electronic caliper and the volume was calculated according to the following equation: V=L×W^2/2 using Study Director Version 3.1.399.22 (Studylog Systems, Inc, CA, USA). […] Tumor growth inhibition (TGI) was calculated as TGI=1−(Mean TVTimepoint(Treatment)/Mean TVTimepoint(Vehicle)) for each timepoint that tumor volumes were measured. […]

[2] = target: T1, His tagged full-length PTPN1 protein (Homo sapiens, UniProt P18031); assay: Mobility shift assay (MSA) to determine potency of PTPN1 inhibitors; assay type: biochemical; conditions: 0.5 nM enzyme, 2 μM substrate
T1 construct: made in house
T1 sequence (P18031 with tags, fused parts or gaps): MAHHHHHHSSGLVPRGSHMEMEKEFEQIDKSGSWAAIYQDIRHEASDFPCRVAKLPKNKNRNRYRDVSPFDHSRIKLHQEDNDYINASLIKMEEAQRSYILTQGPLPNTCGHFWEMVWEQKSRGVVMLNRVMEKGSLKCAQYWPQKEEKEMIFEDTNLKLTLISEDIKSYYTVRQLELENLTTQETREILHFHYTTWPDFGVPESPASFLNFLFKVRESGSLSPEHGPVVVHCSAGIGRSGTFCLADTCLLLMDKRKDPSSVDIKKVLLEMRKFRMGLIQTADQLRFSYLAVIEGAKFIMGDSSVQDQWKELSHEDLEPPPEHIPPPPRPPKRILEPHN
Outline: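 Readout is microfluidic mobility shift (ex 488/em 530 nm) of a 2 μM OG488-labelled pTyr insulin-receptor peptide after a 10 min room-temperature reaction, following 10 min enzyme–compound preincubation. Enzyme: 0.5 nM full-length His-tagged PTPN1 in HEPES pH 7.5 buffer. IC50 fitted from % inhibition at 12 concentrations (1:3 steps).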

IP10 = assay: Cytokine measurement in mouse plasma (IP10); assay type: in vivo; conditions: day 8 of dosing
Experimental: Whole blood was drawn into EDTA powder coated tubes by cardiac puncture from mice on day 8 of dosing with Compound 118 (2 hours after the 16th dose) and plasma was prepared by centrifugation. Cytokines in plasma were measured using the Th1/Th2 Cytokine & Chemokine 20-Plex Mouse ProcartaPlex™ Panel 1 (Invitrogen, Carlsbad, CA). IP10 levels (pg/mL) in vehicle or Compound 118 treated animals were reported.

[3] = test system: Granzyme B+ cells within CD8+ T cells; assay: Granzyme B staining of CD8 T cells flow cytometry assay in mouse spleen; assay type: in vivo; conditions: day 8 of dosing
Experimental: Mice were sacrificed on day 8 of dosing with Compound 118 (2 hours after the 16th dose) and spleens were excised. Spleens were dissociated with a gentleMACS dissociator (Miltenyi Biotec. Bergisch Gladbach. Germany), red blood cells lysed, and single cell suspensions were prepared. Splenocytes were stained with Zombie UV™ Fixable Viability kit (Biolegend. San Diego, CA) diluted in Dulbecco's PBS for 10 minutes at room temperature to exclude dead cells followed by staining for surface markers for 45 minutes on ice using the following flow cytometry antibodies diluted in autoMACS Running Buffer (Miltenyi Biotec. Bergisch Gladbach, Germany); Brilliant Violet 510)-labeled anti-CD45. Brilliant Ultraviolet 395-labeled anti-CD3. Brilliant Violet 786-labeled anti-CD4. APC/Cy7-labeled anti-CD8. Cells were washed twice with autoMACS Running Buffer, permeabilized with Fixation/Permeabilization buffer (FoxP3/Transcription Factor Staining Buffer Set; eBioscience) and stained intracellularly with PE-labeled anti-Granzyme B antibody diluted in Permeabilization buffer (FoxP3/Transcription Factor Staining Buffer Set; eBioscience, San Diego, CA) for 1 hour on ice. After staining, cells were washed twice with autoMACS Running Buffer, and the samples were acquired on a BD LSRFortessa™ X20 flow cytometers (BD Biosciences, San Jose, CA) and analyzed with FLowJo V10 software (FlowJo, Ashland, OR). […]

pSTAT5 in CD3+ T cells = assay: pSTAT5 flow cytometry assay in mouse whole blood; assay type: in vivo; conditions: day 8 of dosing
Experimental: Whole blood was drawn into EDTA powder coated tubes by cardiac puncture from mice on day 8 of dosing with Compound 118 (2 hours after the 16th dose). 90 μL of whole blood were stimulated with 10 μL of murine IL-2 to achieve a final concentration of 100 ng IL-2/mL (R&D Systems. Minneapolis, MN, cat #402-ML) for 20 minutes at 37° C. 5% CO2. After stimulation. 1.8 mL of prewarmed BD Phosflow Lyse/Fix Buffer (BD Biosciences. San Jose. CA) was added for 20 minutes at 37° C. Cells were washed twice in FACS buffer (Dulbecco's PBS with 0.2% BSA) and incubated for 30 minutes on ice in cold Perm Buffer III (BD Biosciences. San Jose. CA). Cells were washed with FACS buffer and resuspended in 50 μL of FACS buffer with antibodies and stained for 3 hours at room temperature with gentle shaking. […] After staining, cells were washed twice with FACS buffer, and the samples were acquired on a BD LSRFortessa™ X20 flow cytometers (BD Biosciences. San Jose, CA) and analyzed with FLowJo V10 software (FlowJo, Ashland, OR). The mean fluorescence intensity (MFI) of pSTAT5 as a measure of the amount of phosphorylated STAT5 in the CD3+ T cell population from vehicle or Compound 118 treated animals was reported.

[4] = test system: B16F10 mouse melanoma cells; assay: B16F10 IFNγ-induced cellular growth inhibition assay; assay type: cell-based; conditions: B16-F10, with 0.5 ng/ml IFNγ, read-out: B16F10 GI IC50
Experimental: B16F10 mouse melanoma cells (ATCC Cat #CRL-6475, Manassas, VA) were seeded at a density of 500 cells per well in a 384-well clear bottom plate (Corning Cat #3765, Corning, NY) in 25 μL total volume of DMEM+10% FBS (Sigma Cat #D6429 and Sigma Cat #F4135, St. Louis, MO). Cells were allowed to adhere overnight at 37° C.+5% CO2. On the following day, 12.5 μL of mouse IFNγ (RD systems Cat #485-MI/CF, Minneapolis, MN) was added to half of the plate (columns 13-24) at a concentration of 2 ng/ml for a final assay concentration of 0.5 ng/ml of IFNγ. Media only (12.5 μL of DMEM+10% FBS) was added to the remainder of the plate (columns 1-12). Next, compounds resuspended in DMSO (Sigma Cat #D2650) at 100 mM were diluted in semi-log dilutions in DMSO ranging from 100 mM to 0.001 mM and DMSO only controls were included. The compound/DMSO dilutions were further diluted 1:250 in DMEM+10% FBS, and 12.5 μL of these dilutions were added in triplicates to cells of both treatment arms (with and without IFNγ). Final compound concentrations ranged from 100 μM to 0.001 μM with a final DMSO concentration of 0.1%. […] Confluence over time for compound dilutions in the presence and absence of IFNγ was measured. […] At these time points, for each compound the percent growth inhibition at every compound dose level was calculated relative to the “DMSO/with IFNγ” control and used to determine the IC50.

[5] = target: T2, His tagged PTPN2 (TC45) protein (Homo sapiens, UniProt P17706); assay: Mobility shift assay (MSA) to determine potency of PTPN2 inhibitors; assay type: biochemical; conditions: 0.5 nM enzyme, 2 μM substrate
T2 construct: made in house
T2 sequence (P17706 with tags, fused parts or gaps isoform P17706-2): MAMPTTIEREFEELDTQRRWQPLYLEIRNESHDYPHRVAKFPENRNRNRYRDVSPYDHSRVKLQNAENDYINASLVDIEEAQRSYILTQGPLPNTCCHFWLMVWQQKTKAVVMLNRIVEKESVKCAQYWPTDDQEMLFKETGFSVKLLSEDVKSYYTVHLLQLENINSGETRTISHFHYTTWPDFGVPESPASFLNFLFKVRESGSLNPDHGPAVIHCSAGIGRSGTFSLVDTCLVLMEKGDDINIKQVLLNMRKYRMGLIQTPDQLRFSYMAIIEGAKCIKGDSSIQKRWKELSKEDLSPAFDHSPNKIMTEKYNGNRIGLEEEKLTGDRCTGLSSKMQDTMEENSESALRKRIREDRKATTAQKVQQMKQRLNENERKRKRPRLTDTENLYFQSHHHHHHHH
Outline: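 His-tagged human PTPN2 (TC45), 0.5 nM, preincubated 10 min at room temperature with compound (12-point, 1:3 dilutions) in HEPES pH 7.5 buffer with EGTA, EDTA, Tween 20 and DTT. Then 2 μM OG488-labelled phospho-insulin-receptor peptide was added for 10 min and quenched. % conversion was read by mobility shift, and IC50 came from % inhibition.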

| IC50 [4] [nM] | Compound | tolerability ([1]; 10 mg/kg/dose oral BID for 21 days) | tumor response observed ([1]; within 7-10 days of treatment) | IC50 [2] [nM] | IP10 levels in plasma, fold higher than vehicle control (IP10) [fold] | frequency of granzyme B producing cells within CD8+ T population in spleen, fold higher than vehicle control [3] [fold] | pSTAT5 levels in whole blood T cells, fold higher than vehicle control (pSTAT5 in CD3+ T cells) [fold] | IC50 [5] [nM] |
| --- | --- | --- | --- | --- | --- | --- | --- | --- |
|  | CC(C)CCN[C@@H]1CCc2cc(O)c(N3CC(=O)NS3(=O)=O)c(F)c2C1 (single isomer, unassigned) [Compound 118] | well tolerated, without obvious adverse health events | apparent tumor stasis and shrinkage | 1 to 10 | 1.7 | 3.9 | 1.6 |  |
| 1000 to 10000 | CC(C)(C)O[C@H]1C[C@@H](CCNC2CCc3cc(O)c(N4CC(=O)NS4(=O)=O)c(F)c3C2)C1 (stereo partly drawn) [Compound 234] |  |  | 1 to 10 |  |  |  | 10 to 100 |
